Assay results reported in PubChem BioAssay (NCI).
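Tested at 5 concentrations; 48 h exposure; 96-well plates; endpoints linearly interpolated, else capped at highest concentration. Abbreviation: GI50, concentration required for 50% inhibition of growth. At the TGI there is no net growth.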

How the values were obtained:
Assay in all cases: NCI-60 cell line screen, 48 h
UO-31 renal = system: UO-31 renal
CCRF-CEM leukemia = system: CCRF-CEM leukemia
T-47D breast = system: T-47D breast
UACC-257 melanoma = system: UACC-257 melanoma
SK-MEL-2 melanoma = system: SK-MEL-2 melanoma
HL-60(TB) leukemia = system: HL-60(TB) leukemia
KM12 colon = system: KM12 colon
PC-3 prostate = system: PC-3 prostate
NCI-H460 lung = system: NCI-H460 lung
NCI-H522 lung = system: NCI-H522 lung
OVCAR-8 ovarian = system: OVCAR-8 ovarian
SK-OV-3 ovarian = system: SK-OV-3 ovarian
SNB-19 CNS = system: SNB-19 CNS
786-0 renal = system: 786-0 renal
MDA-MB-435 = system: MDA-MB-435
DU-145 prostate = system: DU-145 prostate
ACHN renal = system: ACHN renal
HS 578T breast = system: HS 578T breast
A498 renal = system: A498 renal
SK-MEL-5 melanoma = system: SK-MEL-5 melanoma
MDA-MB-231 breast = system: MDA-MB-231 breast
SF-268 CNS = system: SF-268 CNS
MOLT-4 leukemia = system: MOLT-4 leukemia
OVCAR-4 ovarian = system: OVCAR-4 ovarian
K-562 leukemia = system: K-562 leukemia
SN12C renal = system: SN12C renal
OVCAR-5 ovarian = system: OVCAR-5 ovarian
HT29 colon = system: HT29 colon
BT-549 breast = system: BT-549 breast
SNB-75 CNS = system: SNB-75 CNS
LOX IMVI melanoma = system: LOX IMVI melanoma
MCF7 breast = system: MCF7 breast
A549 NSCLC = system: A549 NSCLC
SF-295 CNS = system: SF-295 CNS
CAKI-1 renal = system: CAKI-1 renal
HOP-92 NSCLC = system: HOP-92 NSCLC
RPMI-8226 leukemia = system: RPMI-8226 leukemia
RXF 393 renal = system: RXF 393 renal
MALME-3M melanoma = system: MALME-3M melanoma
M14 melanoma = system: M14 melanoma
NCI/ADR-RES ovarian = system: NCI/ADR-RES ovarian
COLO 205 colon = system: COLO 205 colon
HCT-116 colon = system: HCT-116 colon
SF-539 CNS = system: SF-539 CNS
SR leukemia = system: SR leukemia
NCI-H226 lung = system: NCI-H226 lung
UACC-62 melanoma = system: UACC-62 melanoma
NCI-H23 lung = system: NCI-H23 lung
U251 CNS = system: U251 CNS
TK-10 renal = system: TK-10 renal
HCC-2998 colon = system: HCC-2998 colon
SK-MEL-28 melanoma = system: SK-MEL-28 melanoma
SW-620 colon = system: SW-620 colon
HCT-15 colon = system: HCT-15 colon
EKVX NSCLC = system: EKVX NSCLC
HOP-62 NSCLC = system: HOP-62 NSCLC
OVCAR-3 ovarian = system: OVCAR-3 ovarian
IGROV1 ovarian = system: IGROV1 ovarian

For O=C(Oc1ccc([N+](=O)[O-])cc1)N1CCC(C(O)(c2ccc3c(c2)OCO3)c2ccc3c(c2)OCO3)CC1, the GI50 (UO-31 renal) was greater than 100 µM, the TGI (UO-31 renal) was greater than 100 µM and the GI50 (CCRF-CEM leukemia) was greater than 100 µM. It also gave a TGI (CCRF-CEM leukemia) greater than 100 µM, a GI50 (T-47D breast) greater than 100 µM and a TGI (T-47D breast) greater than 100 µM. It also gave a GI50 (UACC-257 melanoma) greater than 100 µM, a TGI (UACC-257 melanoma) greater than 100 µM and a GI50 (SK-MEL-2 melanoma) greater than 100 µM. It also gave a TGI (SK-MEL-2 melanoma) greater than 100 µM, a GI50 (HL-60(TB) leukemia) greater than 100 µM and a TGI (HL-60(TB) leukemia) greater than 100 µM. The GI50 (KM12 colon) was greater than 100 µM, the TGI (KM12 colon) was greater than 100 µM and the GI50 (PC-3 prostate) was greater than 100 µM. For the same compound, the TGI (PC-3 prostate) was greater than 100 µM, the GI50 (NCI-H460 lung) was greater than 100 µM and the TGI (NCI-H460 lung) was greater than 100 µM. For the same compound, the GI50 (NCI-H522 lung) was greater than 100 µM, the TGI (NCI-H522 lung) was greater than 100 µM and the GI50 (OVCAR-8 ovarian) was greater than 100 µM. It also gave a TGI (OVCAR-8 ovarian) greater than 100 µM, a GI50 (SK-OV-3 ovarian) greater than 100 µM and a TGI (SK-OV-3 ovarian) greater than 100 µM. The GI50 (SNB-19 CNS) was greater than 100 µM, the TGI (SNB-19 CNS) was greater than 100 µM and the GI50 (786-0 renal) was greater than 100 µM. For the same compound, the TGI (786-0 renal) was greater than 100 µM, the GI50 (MDA-MB-435) was greater than 100 µM and the TGI (MDA-MB-435) was greater than 100 µM. For the same compound, the GI50 (DU-145 prostate) was greater than 100 µM, the TGI (DU-145 prostate) was greater than 100 µM and the GI50 (ACHN renal) was greater than 100 µM. It also gave a TGI (ACHN renal) greater than 100 µM, a GI50 (HS 578T breast) greater than 80.4 µM and a TGI (HS 578T breast) greater than 100 µM. The GI50 (A498 renal) was greater than 100 µM, the TGI (A498 renal) was greater than 100 µM and the GI50 (SK-MEL-5 melanoma) was greater than 100 µM. For the same compound, the TGI (SK-MEL-5 melanoma) was greater than 100 µM, the GI50 (MDA-MB-231 breast) was greater than 100 µM and the TGI (MDA-MB-231 breast) was greater than 100 µM. The GI50 (SF-268 CNS) was greater than 100 µM, the TGI (SF-268 CNS) was greater than 100 µM and the GI50 (MOLT-4 leukemia) was greater than 100 µM. For the same compound, the TGI (MOLT-4 leukemia) was greater than 100 µM, the GI50 (OVCAR-4 ovarian) was greater than 100 µM and the TGI (OVCAR-4 ovarian) was greater than 100 µM. For the same compound, the GI50 (K-562 leukemia) was greater than 100 µM, the TGI (K-562 leukemia) was greater than 100 µM and the GI50 (SN12C renal) was greater than 100 µM. For the same compound, the TGI (SN12C renal) was greater than 100 µM, the GI50 (OVCAR-5 ovarian) was greater than 100 µM and the TGI (OVCAR-5 ovarian) was greater than 100 µM. For the same compound, the GI50 (HT29 colon) was greater than 100 µM, the TGI (HT29 colon) was greater than 100 µM and the GI50 (BT-549 breast) was greater than 100 µM. The TGI (BT-549 breast) was greater than 100 µM, the GI50 (SNB-75 CNS) was greater than 100 µM and the TGI (SNB-75 CNS) was greater than 100 µM. It also gave a GI50 (LOX IMVI melanoma) greater than 100 µM, a TGI (LOX IMVI melanoma) greater than 100 µM and a GI50 (MCF7 breast) greater than 100 µM. The TGI (MCF7 breast) was greater than 100 µM, the GI50 (A549 NSCLC) was greater than 100 µM and the TGI (A549 NSCLC) was greater than 100 µM. For the same compound, the GI50 (SF-295 CNS) was greater than 100 µM, the TGI (SF-295 CNS) was greater than 100 µM and the GI50 (CAKI-1 renal) was greater than 100 µM. The TGI (CAKI-1 renal) was greater than 100 µM, the GI50 (HOP-92 NSCLC) was greater than 52.3 µM and the TGI (HOP-92 NSCLC) was greater than 100 µM. The GI50 (RPMI-8226 leukemia) was greater than 100 µM, the TGI (RPMI-8226 leukemia) was greater than 100 µM and the GI50 (RXF 393 renal) was greater than 100 µM. The TGI (RXF 393 renal) was greater than 100 µM, the GI50 (MALME-3M melanoma) was greater than 100 µM and the TGI (MALME-3M melanoma) was greater than 100 µM. It also gave a GI50 (M14 melanoma) greater than 100 µM, a TGI (M14 melanoma) greater than 100 µM and a GI50 (NCI/ADR-RES ovarian) greater than 100 µM. It also gave a TGI (NCI/ADR-RES ovarian) greater than 100 µM, a GI50 (COLO 205 colon) greater than 100 µM and a TGI (COLO 205 colon) greater than 100 µM. The GI50 (HCT-116 colon) was greater than 100 µM, the TGI (HCT-116 colon) was greater than 100 µM and the GI50 (SF-539 CNS) was greater than 100 µM. It also gave a TGI (SF-539 CNS) greater than 100 µM, a GI50 (SR leukemia) greater than 100 µM and a TGI (SR leukemia) greater than 100 µM. It also gave a GI50 (NCI-H226 lung) greater than 100 µM, a TGI (NCI-H226 lung) greater than 100 µM and a GI50 (UACC-62 melanoma) greater than 100 µM. The TGI (UACC-62 melanoma) was greater than 100 µM, the GI50 (NCI-H23 lung) was greater than 100 µM and the TGI (NCI-H23 lung) was greater than 100 µM. It also gave a GI50 (U251 CNS) greater than 100 µM, a TGI (U251 CNS) greater than 100 µM and a GI50 (TK-10 renal) greater than 100 µM. It also gave a TGI (TK-10 renal) greater than 100 µM, a GI50 (HCC-2998 colon) greater than 100 µM and a TGI (HCC-2998 colon) greater than 100 µM. The GI50 (SK-MEL-28 melanoma) was greater than 100 µM, the TGI (SK-MEL-28 melanoma) was greater than 100 µM and the GI50 (SW-620 colon) was greater than 100 µM. For the same compound, the TGI (SW-620 colon) was greater than 100 µM, the GI50 (HCT-15 colon) was greater than 100 µM and the TGI (HCT-15 colon) was greater than 100 µM. It also gave a GI50 (EKVX NSCLC) greater than 100 µM, a TGI (EKVX NSCLC) greater than 100 µM and a GI50 (HOP-62 NSCLC) greater than 100 µM. It also gave a TGI (HOP-62 NSCLC) greater than 100 µM, a GI50 (OVCAR-3 ovarian) greater than 100 µM and a TGI (OVCAR-3 ovarian) greater than 100 µM. The GI50 (IGROV1 ovarian) was greater than 100 µM and the TGI (IGROV1 ovarian) was greater than 100 µM.
